Measurements reported in patent US7910579B2, “Benzoxazole derivatives” (Tohoku University, priority 2006, dated 2011).
Like-named read-outs stand apart in the source and are kept apart here.

What was measured:
[1] = system: neurofibrillary tangle in the brain section of an Alzheimer disease patient; assay: Staining test on a brain section of an Alzheimer disease patient: neurofibrillary tangle; type: binding, human; details: 100 μM solution in 50% ethanol, 10 minutes, paraffin brain section
Text: (§1) (1) Brain specimens at the temporal lobe and the hippocampus of patients to which a definitive diagnosis of Alzheimer disease had been given, and those of normal senile persons were used. The specimens were given by our coworker, Fukushimura Hospital, Longevity Medicine Institute, and we were given their consent of use of the specimens for our study purpose by the bereaved of the patients (Fukushimura Hospital Ethical Review Board Approval No. 20).
(§2) (2) The paraffin-embedded brain tissue was cut Into slices having a thickness of 6 μm or 8 μm, and extended and dried on a slide. The paraffin brain section was steeped for paraffin removal in xylene twice for 10 minutes, 100% ethanol twice for 5 minutes, 90% ethanol for 5 minutes and running water for 10 minutes in that order.
(§3) (3) For pretreatment prior to the staining treatment with a compound of the invention, the sections were steeped for autofluorescence removal with lipofuscin. First, the paraffin-removed sections were dipped in 0.25% KMnO4 solution for 20 minutes. These were washed with PBS, twice for 2 minutes, then dipped in 0.1% K2S2O5/oxalic acid solution for about 5 seconds, and then further washed with PBS, three times for 2 minutes.
(4) About 150 μl of a 100 μM solution of a compound of the invention dissolved in 50% ethanol was dropwise applied to the section and reacted for 10 minutes. After dipped five times in tap water, the section was entrapped with Fluor Save Reagent (Calbiochem), and analyzed through microscopy with a fluorescence microscope (Nikon, Eclipse 80i). The images were taken with a digital camera (Nikon Dxm 1200F or Photometrics' Cool SNAP ES). […]

[2] = biological target: T1, amyloid β protein in the brain section of an Alzheimer disease patient (Homo sapiens, UniProt P05067); assay: Staining test on a brain section of an Alzheimer disease patient: amyloid β protein; type: binding
T1 construct: from tissue; host or cells: paraffin-embedded temporal lobe and hippocampus of Alzheimer disease patients
T1 sequence (P05067 672-713 limits assumed): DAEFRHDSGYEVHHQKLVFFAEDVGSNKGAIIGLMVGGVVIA
Text: as §1, §2, §3
(4) About 150 μl of a 100 μM solution of a compound of the invention dissolved in 50% ethanol was dropwise applied to the section and reacted for 10 minutes. After dipped five times in tap water, the section was entrapped with Fluor Save Reagent (Calbiochem), and analyzed through microscopy with a fluorescence microscope (Nikon, Eclipse 80i). The images were taken with a digital camera (Nikon Dxm 1200F or Photometrics' Cool SNAP ES).
(1) After paraffin removal, the sections were washed in distilled water, twice for 2 minutes. Then, using ImmunoPen, the tissue was marked with a surrounding line; about 150 μl of formic acid was dropwise applied to the section and statically left at room temperature for 5 minutes. The section was washed with tap water for 5 minutes, then dipped in cold PBS-Tween 20 for 2 minutes, and thereafter about 150 μl of 0.05% trypsin solution was dropwise applied to it and reacted at 37° C. for 15 minutes.
(2) In an ice bath, this was washed with cold PBS-Tween 20, twice for 5 minutes, and then 2 drops of blocking serum were applied to it and reacted at 37° C. for 30 minutes. Excess water was removed, and then about 150 μl of a specific antibody to amyloid β protein, 6F/3D (by DAKO, 1/50 dilution) was dropwise applied to it, and reacted at 37° C. for 1 hour.
(3) Further, this was washed with cold PBS-Tween 20, 5 times for 2 minutes, and then 2 drops of an anti-mouse IgG (H+L), goat, biotin-binding solution were applied to it and reacted at 37° C. for 1 hour. Then, this was washed with cold PBS-Tween 20, three times for 2 minutes, and 2 drops of an ABC solution (streptoavidin-biotin-peroxidase composite solution) were applied to it, and left statically as such for 30 minutes. Again this was washed with cold PBS-Tween 20, three times for 2 minutes, and then about 150 μl of a DAB solution (10 mg of DAB was dissolved in 20 ml of 0.05 mol/liter tris-HCl buffer, and just before use, 100 μl of 3% hydrogen peroxide water was added to it) was dropwise applied to it for sufficiently staining it. Then, this was washed with distilled water for 1 minute to stop the reaction, then entrapped and observed through microscopy.

[3] = system: histidine-requiring Salmonella typhimurium TA100 and TA98 strains; details: cited from earlier work
[4] = system: histidine-requiring Salmonella typhimurium TA100 and TA98 strains; assay: Mutagenicity Test (reverse mutation test); type: cell-based; details: for Relative Activity in the presence of S9Mix / Relative Activity in the absence of S9Mix: reverse mutation test
Description: In view of their use, it is desirable that the compounds of the invention have no mutagenicity or have little mutagenicity to a level causing no problem. For investigating the gene mutagenesis of the compounds of the invention, herein carried out was a reverse mutation test with histidine-requiring Salmonella typhimurium TA100 and TA98 strains. Two tests were carried out. One is a test for dose determination test; and the other is for mutagenicity.
The test methods and the mutagenicity of the compounds of the invention are mentioned below. In the dose determination test, six doses of 0.160, 0.800, 4.00, 20.0, 100 and 500 μg/plate (common ratio 5) were tried.
As a result of the dose determination test, when the mutagenicity of the test compound was admitted, then the actual test for mutagenicity was carried out, using the dose capable of giving an accurate dose-reaction curve. When no mutagenicity of the test compound was admitted in the dose determination test and when the growth inhibition of the test cells was admitted therein, then the dose to present the growth inhibition was taken as the maximum dose; and when the growth inhibition was not admitted, then a dose of 5000 μg/plate was taken as the maximum dose. With that, the actual test for mutagenicity was carried out on the level of 6 doses (common ratio 2).
First, a test compound was dissolved or suspended in DMSO, then diluted in order to prepare test compound liquids having a varying concentration.
100 μl of a test compound liquid or a negative control (DMSO) solution was put into a sterilized test tube. Then, for the case in the absence of a metabolic activation system (−S9mix), 500 μl of 0.1 mol/liter sodium-phosphate buffer (pH 7.4) was added to it; and for the case in the presence of a metabolic activation system (+S9mix), 500 μl of S9mix was added to it.
Next, 100 μl of the test strain suspension that had been cultivated with shaking at 37° C. for 8 hours was added to it, and preincubated in a shaking thermostat at 37° C. for 20 minutes. After shaken, 2 ml of top agar was added to it, and the contents were mixed.
Next, the mixture was poured onto a minimal glucose agar plate medium (plate) and spread uniformly thereon, then the top agar was solidified, and the plate was transferred into a thermostat and incubated at 37° C. for 48 hours.
Then, the number of the colonies grown through reverse mutation was counted.
For counting it, […]. After area correction and miss-counting correction, the number of the colonies was computed. When the colony analyzer could not be used owing to the deposition of the test compound or the cell growth inhibition, then the number of the colonies was counted with the naked eye.
In case where the number of the colonies through reverse mutation increased two times or more that of the negative control and where the dose dependency or the reproducibility of the increase was admitted, then the tested sample was decided as positive. When the sample was is decided as positive, then the relative activity that indicates the relative comparative value of the intensity of the mutagenicity of the test compound was obtained according to the following formula: Relative Activity={(number of colonies per plate having the concentration)−(number of colonies per negative control plate)}/the value of concentration (mg/plate).

Amyloid β protein 1-40 = biological target: T2, Amyloid β protein 1-40 (Homo sapiens, UniProt P05067); assay: Fluorescence Congo Red Method; type: binding; details: 1 h, compound 10 μM, amyloid β protein 5 μM
T2 construct: Amyloid β protein 1-40 (bought from Peptide Laboratory); purchased Peptide Laboratory
T2 sequence (P05067 672-711): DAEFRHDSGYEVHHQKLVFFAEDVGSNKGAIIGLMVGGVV
Description: Next described is a screening method for the compounds of the invention. Some of the compounds of the invention could not be screened according to a Thioflavin T method, since their fluorescence wavelength overlaps with that of Thioflavin T. For such compounds, the following novel screening method was introduced. (1) Amyloid β protein 1-40 (bought from Peptide Laboratory) was dissolved in a phosphate buffer (pH 7.4) and left at 37° C. for 4 days. (2) 50 μl of Congo red dissolved in the buffer was applied to a 96-well microplate (final concentration, 0.1, 0.3, 1 μM). (3) 100 μl of amyloid β protein was added to it (final concentration 5 μM), and left as such for 30 minutes. (4) 100 μl of a test compound dissolved in the buffer was added to it (final concentration, 10 μM, and left as such for 60 minutes. (5) Using a fluorescence microplate reader (Spectra Max 190 by Molecular Device), the sample was analyzed at the optimum exciting wavelength and the test wavelength that had been previously determined. (6) The fluorescence intensity in the presence of the test compound, amyloid β protein and Congo red is represented by A; that in the presence of the test compound and Congo red is by B; that in the presence of the test compound and amyloid β protein is by C; and that in the presence of only the test compound is by D. The β structure recognition of the test compound is computed according to the following formula: β structure recognition (%) of test compound={(A−B)/(C−D)}×100. (7) It may be said that the test compound having a higher β structure recognition percentage may have higher binding specificity to amyloid β protein.

[5] = Brain Permeability Test Through HPLC; type: in vivo; details: mice, 2 minutes after intravenous administration
Description: A compound of the invention was intravenously administered to mice, and tested for its in-vivo brain permeability in the mice.
(1) Slc:ICR mice (by Nippon SLC) (body weight, 30 to 40 g; n=3) were used.
(2) A test compound was dissolved in a mixture of 5% Tween 80-5% ethyl alcohol-5% 1 N HCl-physiological saline water, and injected into the test mouse via its tail vein. Two minutes after the administration, the blood was collected from the test mouse under ether anesthesia via its abdominal aorta using a heparin-steeped syringe, and the brain material was collected from it.
(3) After collected, the blood was centrifuged at 4° C. and 14,000 rpm for 10 minutes, and the supernatant was stored at −80° C. as plasma. After collected, the brain material (including the cerebellum) was stored at −80° C.
(4) 0.3 ml of acetonitrile was added to 0.1 ml of the plasma, then vortexed, and centrifuged at 4° C. and under 10,000 G for 5 minutes. After centrifuged, 0.2 ml of the resulting supernatant was transferred into Mini-Uniprep (Whatman), then 0.2 ml of 20 mM phosphate buffer was added to it and filtered. 0.2 ml of the resulting filtrate was analyzed through HPLC (Shiseido Nanospace SI-2; pump, 3001; UV-VIS detector, 3002; column thermostat, 3004; fluorescence detector, 3013).
(5) 2 ml of methanol was added to the brain, homogenized, and centrifuged at 4° C. and 3000 or 4000 rpm for 10 minutes. After centrifuged, 500 μl of the resulting supernatant was diluted 10-fold with 20 mM phosphate buffer. (i) 2 to 3 ml of acetonitrile, (ii) 2 to 5 ml of methanol and (iii) 4 to 6 ml of ultra-pure water were led through a cartridge for solid-phase extraction (J. T. Baker Speedisk) in that order, and the 10-fold diluted supernatant solution was led through it. Via an empty syringe, air was applied to the cartridge for solid-phase extraction, two or three times to remove water, and then this was eluted with about 500 μl of acetonitrile or methanol, and the eluate was diluted 2-fold with 20 mM phosphate buffer. 0.2 ml of the resulting solution was analyzed through HPLC.
(6) The test compound content in the plasma and in the brain was determined relative to the dose of the compound (% ID (injected dose)/g or ml).

Acute Toxicity Test = type: in vivo; details: Crj:CD1 male mice, tail vein, observed for 7 days
Description: The compounds of the invention were tested for their acute toxicity through intravenous administration thereof to mice. Four Crj:CD1 male mice formed one test group, and some test groups of those mice were used (the mean body weight of the mice of each group was from 31 to 32 g). A test compound was dissolved in a mixture of 1 N HCl, polyethylene glycol-400 and distilled water, or dissolved in DMSO, and then diluted with distilled water. This was administered to each mouse via its tail vein.

[6] = Congo red 0.1 μM, read-out: Binding Percentage of Compound in the presence of 0.1 μM CR
[7] = Congo red 0.3 μM, read-out: Binding Percentage of Compound in the presence of 0.3 μM CR
[8] = Congo red 1 μM, read-out: Binding Percentage of Compound in the presence of 1 μM CR

Compound	Relative Activity in the presence of S9Mix [4]	Relative Activity in the absence of S9Mix [4]	activity at 10 µM (Amyloid β protein 1-40; [6])	activity at 10 µM (Amyloid β protein 1-40; [7])	activity at 10 µM (Amyloid β protein 1-40; [8])	Brain Permeability: Brain [5]	Brain Permeability: Plasma [5]	Maximum Permissible Dose (mg/kg, intravenous administration) (Acute Toxicity Test)	other results
CN(C)c1ccc(-c2nnc(-c3sc4ccccc4c3Cl)o2)cc1 [THK-258, [4-[5-(3-chloro-benzo[b]thiophen-2-yl)-[1,3,4]oxadiazol-2-yl]-phenyl]-dimethylamine]									Binding to (staining of) neurofibrillary tangle in the brain section of an Alzheimer disease patient [1]: bound to the amyloid β protein and the neurofibrillary tangle; Binding to (staining of) amyloid β protein in the brain section of an Alzheimer disease patient ([2]; 100 μM solution in 50% ethanol, 10 minutes, paraffin brain section): bound to the amyloid β protein; Specificity to amyloid β ([2]; statement in the description of formulae (II) to (VI)): high specificity to amyloid β
CN(C)c1ccc(-c2cn3cc(I)ccc3n2)cc1 [IMPY]									Relative activity (mutagenicity) ([3]; in the presence of S9mix, literature compounds): extremely high; Relative Activity in the presence of S9Mix ([3]; reverse mutation test, +S9mix, data from PCT/JP03/07183 (WO03/106439)): minus; Relative Activity in the absence of S9Mix ([3]; reverse mutation test, -S9mix, data from PCT/JP03/07183 (WO03/106439)): 3,326,100
OCC(CF)Oc1ccc2nc(/C=C/c3cnc(N4CCCCC4)s3)oc2c1 (centres unmarked) [THK-713]	minus	minus	58.2%	21.2%	3%	5.9 % ID/g or ml	3.29 % ID/g or ml	≧10 mg/kg	Relative activity (mutagenicity) ([4]; irrespective of the absence or presence of S9mix): minus
CN1CCN(c2ncc(/C=C/c3nc4ccc(OC(CO)CF)cc4o3)s2)CC1 (centres unmarked) [THK-707, (E)-6-[(1-fluoromethyl-2-hydroxy)ethoxy]-2-[2-[2-(4-methylpiperazin-1-yl)thiazol-5-yl]ethenyl]benzoxazole]	minus	264	66.8%	36.4%	29.7%	4.4 % ID/g or ml	0.58 % ID/g or ml	≧10 mg/kg	Relative activity (mutagenicity) ([4]; in the presence of S9mix): weak
CC(=C(C#N)C#N)c1ccc2cc(N(C)CCF)ccc2c1 [FDDNP]									Relative Activity in the absence of S9Mix [3]: 3,564,960; Relative Activity in the presence of S9Mix [3]: minus
